From patent publication US20230312562A1, “TETRAHYDRO-3H-PYRAZOLO QUINOLONE AND TETRAHYDRO-3H-PYRROLO[3,2-F]QUINOLINE -CONTAINING COMPOUNDS AND USES THEREOF” (Purdue Research Foundation, priority 2020, published 2023)
Marks after values point to notes of the source that are not given here.

Assays:
K-562 = test: NCI-60 sulforhodamine B assay, K-562; format: cell-based; settings: Homo sapiens, K562; K-562, leukemia, 48 h
Procedure: (§1) Compounds HSD1787, 22, 23 and 27 were sent to the National Cancer Institute (NCI), Bethesda, Maryland (Drug Evaluation Branch), to evaluate the effects of compounds on the NCI-60 cell panel. According to the NCI protocol, the compounds were evaluated at five concentrations (10-fold dilutions) with the highest concentration being 100 μM and the incubation period was 48 h. A sulforhodamine B assay was used to assay the effects of the compounds on the cancer cells. […] The most sensitive cell lines (total growth inhibition, TGI, could be achieved with concentrations less than 1 μM of some of the compounds) were MDA-MB-435 (melanoma), SF-539 (glioma), A498 (renal), MDA-MB-468 (breast), OVCAR-3 (ovarian), NCI-H522 (non-small cell lung cancer). On the other hand, UACC-257 and SK-MEL-28 (both melanoma), TK-10 (renal), OVCAR-4 (ovarian) and T-47D (breast) were resistant to the compounds as 10 μM could not cause total growth inhibition (Table 2). […] This is in line with current appreciation that tumor mutational burden and not necessarily the anatomical origin of the tumor determines treatment strategies or outcomes.
(§2) According to the National Cancer Institute, Bethesda, Maryland (the protocol of the Drug Evaluation Branch), the effects of compounds are measured as follows: Cell suspensions are diluted to a target cell density of 5000-40,000 cells per well (based on cell growth characteristics) in a 96-well microtiter plates. The test compounds were evaluated at five concentrations (10-fold dilutions) with the highest concentration being 100 μM. The incubation period was 48 h under 5% carbon dioxide atmosphere and 100% humidity. A sulforhodamine B assay was used to assay the cells. Optical densities of the wells were read by a plate reader the optical densities were processed into GI50 (the concentration that causes 50% growth inhibition).
(§3) The NCI renamed the IC50 value, the concentration of compound that causes 50% growth inhibition, as follows:
(§4) The control is the well not treated with test agent (https://dtp.cancer.gov/databases_tools/docs/compare/compare_methodology.htm).

UACC-257 = test: NCI-60 sulforhodamine B assay, UACC-257; format: cell-based; settings: Homo sapiens; UACC-257, melanoma, 48 h
Procedure: as §1, §2, §3, §4

SR = test: NCI-60 sulforhodamine B assay, SR; format: cell-based; settings: Homo sapiens, lymphoma, 48 h
Procedure: as §1, §2, §3, §4

Ovcar-3 = test: NCI-60 sulforhodamine B assay, Ovcar-3; format: cell-based; settings: Ovcar-3, ovarian, 48 h; for GI50: Homo sapiens
Procedure: as §1, §2, §3, §4

SF-539 = test: NCI-60 sulforhodamine B assay, SF-539; format: cell-based; settings: SF-539, CNS, 48 h; for GI50: Homo sapiens
Procedure: as §1, §2, §3, §4

TK-10 = test: NCI-60 sulforhodamine B assay, TK-10; format: cell-based; settings: Homo sapiens; TK-10, renal, 48 h
Procedure: as §1, §2, §3, §4

Ovcar-8 = test: NCI-60 sulforhodamine B assay, Ovcar-8; format: cell-based; settings: Homo sapiens; Ovcar-8, ovarian, 48 h
Procedure: as §1, §2, §3, §4

MDA-MB-468 = test: NCI-60 sulforhodamine B assay, MDA-MB-468; format: cell-based; settings: MDA-MB-468, breast, 48 h; for GI50: Homo sapiens
Procedure: as §1, §2, §3, §4

SK-MEL-28 = test: NCI-60 sulforhodamine B assay, SK-MEL-28; format: cell-based; settings: Homo sapiens; SK-MEL-28, melanoma, 48 h
Procedure: as §1, §2, §3, §4

SF-295 = test: NCI-60 sulforhodamine B assay, SF-295; format: cell-based; settings: SF-295, CNS, 48 h; for GI50: Homo sapiens
Procedure: as §1, §2, §3, §4

MCF7 = test: NCI-60 sulforhodamine B assay, MCF7; format: cell-based; settings: MCF7, breast, 48 h; for GI50: Homo sapiens
Procedure: as §1, §2, §3, §4

A498 = test: NCI-60 sulforhodamine B assay, A498; format: cell-based; settings: A498, renal, 48 h; for GI50: Homo sapiens
Procedure: as §1, §2, §3, §4

NCI60 cell lines = test: NCI-60 cell panel, summary statements; format: cell-based; settings: melanoma, renal, breast, ovarian and leukemia cancer cell lines; read-out: GI50 values as low as
Procedure: as §1, §2, §3, §4

NCI/ADR-RES = test: NCI-60 sulforhodamine B assay, NCI/ADR-RES; format: cell-based; settings: ovarian, 48 h; for GI50: Homo sapiens
Procedure: as §1, §2, §3, §4

MDA-MB-435 = test: NCI-60 sulforhodamine B assay, MDA-MB-435; format: cell-based; settings: MDA-MB-435, melanoma, 48 h; for GI50: Homo sapiens
Procedure: as §1, §2, §3, §4

NCI-H522 = test: NCI-60 sulforhodamine B assay, NCI-H522; format: cell-based; settings: NCI-H522, non-small cell lung, 48 h; for GI50: Homo sapiens
Procedure: as §1, §2, §3, §4

Ovcar-4 = test: NCI-60 sulforhodamine B assay, Ovcar-4; format: cell-based; settings: Homo sapiens; Ovcar-4, ovarian, 48 h
Procedure: as §1, §2, §3, §4

T-47D = test: NCI-60 sulforhodamine B assay, T-47D; format: cell-based; settings: Homo sapiens, T47D, breast, 48 h
Procedure: as §1, §2, §3, §4

MDA-MB-231 = test: Inhibition of MDA-MB-231 viability/growth at 1 μM, 72 h; format: cell-based; settings: Homo sapiens, MDA-MB-231; 1 μM compound, 72 h incubation
tubulin = test: Inhibition of tubulin polymerization; format: biochemical; settings: at 10 μM; similar to inhibition by colchicine

| SMILES | GI50 (K-562) [nM] | GI50 (UACC-257) [µM] | GI50 (SR) [nM] | GI50 (Ovcar-3) [nM] | GI50 (SF-539) [nM] | TGI (total growth inhibition) (SF-539) | GI50 (TK-10) [µM] | GI50 (Ovcar-8) [nM] | GI50 (MDA-MB-468) [nM] | GI50 (SK-MEL-28) [nM] | GI50 (SF-295) [nM] | GI50 (MCF7) [nM] | TGI (total growth inhibition) (A498) | GI50 (A498) [nM] | GI50 (NCI/ADR-RES) [nM] | TGI (total growth inhibition) (NCI/ADR-RES) [µM] | GI50 (MDA-MB-435) [nM] | GI50 (NCI-H522) [nM] | TGI (total growth inhibition) (NCI-H522) | GI50 (Ovcar-4) [nM] | other results |
| --- | --- | --- | --- | --- | --- | --- | --- | --- | --- | --- | --- | --- | --- | --- | --- | --- | --- | --- | --- | --- | --- |
| Nc1n[nH]c2cc(F)c([C@@H]3Nc4ccc5[nH]ncc5c4[C@H]4[C@@H]5CC[C@@H](C5)[C@H]43)cc12 (stereo in doubt) [Compound 27, 6-Fluoro-5-(6,7,7a,8,9,10,11,11a-octahydro-3H-8,11-methanopyrazolo[4,3-a]phenanthridin-7-yl)-1H-indazol-3-amine] | 92.2 | 2.7 | 59.8 | 138 | 114 | 0.304^d μM | 2.02 | 194 | 133 | 352 | 139 | 137 | 0.280^d μM | 71.4 | 177 | 1.21 | 94.3 | 109 | 0.544^d μM | 416 | TGI (total growth inhibition) (MDA-MB-468): 0.424^d μM; TGI (total growth inhibition) (SF-295): 5.77 µM; TGI (total growth inhibition) (MCF7): 8.44 µM; GI50 (NCI60 cell lines): ≥ 30 nM; TGI (total growth inhibition) (MDA-MB-435): 0.283^d μM; GI50 (T-47D): > 10 µM; inhibition at 1 µM (MDA-MB-231): ~100% |
| Nc1n[nH]c2cc(F)c([C@@H]3Nc4c(F)cc5[nH]ncc5c4[C@H]4[C@@H]5CC[C@@H](C5)[C@H]43)cc12 (stereo in doubt) [Compound 23, 6-Fluoro-5-(5-fluoro-6,7,7a,8,9,10,11,11a-octahydro-3H-8,11-methanopyrazolo[4,3-a]phenanthridin-7-yl)-1H-indazol-3-amine] | 110 | 5.66 | 131 | 103 | 85.2 | 0.270 µM | 5.72 | 142 | 86.5 | 3680 | 91.5 | 131 | 0.2 µM | 69 | 150 | 5.81 | 84.6 | 105 | 6.60 µM | 1170 | TGI (total growth inhibition) (Ovcar-3): 4.10 µM; TGI (total growth inhibition) (SF-295): 3.99 µM; TGI (total growth inhibition) (MCF7): 8.33 µM; GI50 (NCI60 cell lines): ≥ 30 nM; TGI (total growth inhibition) (MDA-MB-435): 0.231 µM; GI50 (T-47D): > 10 µM |
| Nc1n[nH]c2ccc([C@@H]3Nc4c(F)cc5[nH]ncc5c4[C@H]4[C@@H]5CC[C@@H](C5)[C@H]43)cc12 (stereo in doubt) [Compound 22, 5-(5-fluoro-6,7,7a,8,9,10,11,11a-octahydro-3H-8,11-methanopyrazolo[4,3-a]phenanthridin-7-yl)-1H-indazol-3-amine] | 47.7 | 5.01 | 87.7 | 220 | 167 | 0.590 µM | 10.7 | 448 | 78.8 | 1400 | 50 | 61.6 | 0.636 µM | 72.2 | 198 | 0.921 | 34.8 | 115 | 1.92 µM | 3340 | TGI (total growth inhibition) (Ovcar-3): 0.806 µM; TGI (total growth inhibition) (MDA-MB-468): 0.468 µM; GI50 (NCI60 cell lines): ≥ 30 nM; GI50 (T-47D): > 10 µM; inhibition at 1 µM (MDA-MB-231): 79% |
| Nc1n[nH]c2ccc([C@@H]3Nc4ccc5[nH]ncc5c4[C@H]4C5CC[C@@H](C5)[C@@H]34)cc12 (stereo in doubt) [HSD1787, 5-(6,7,7a,8,9,10,11,11a-Octahydro-3H-8,11-methanopyrazolo[4,3-a]phenanthridin-7-yl)-1H-indazol-3-amine] | 264 | > 10 | 233 | 243 | 232 | 0.654 µM | 3.86 | 479 | 269 | 934 | 340 | 375 | 0.646 µM | 179 | 480 | > 10 | 124 | 210 | 0.868 µM | 2140 | TGI (total growth inhibition) (Ovcar-3): 0.634 µM; TGI (total growth inhibition) (MDA-MB-468): 2.73 µM; Inhibition of the polymerization of tubulin (tubulin): inhibited the polymerization of tubulin; TGI (total growth inhibition) (MDA-MB-435): 0.329 µM; GI50 (T-47D): > 10 µM; inhibition at 1 µM (MDA-MB-231): 95% |
| Oc1ccc([C@@H]2Nc3ccc4[nH]ncc4c3[C@H]3C4CC[C@@H](C4)[C@@H]23)c(F)c1 (stereo in doubt) [Compound 14, 3-Fluoro-4-(6,7,7a,8,9,10,11,11a-octahydro-3H-8,11-methanopyrazolo[4,3-a]phenanthridin-7-yl)phenol] | – | – | – | – | – | – | – | – | – | – | – | – | – | – | – | – | – | – | – | – | inhibition at 1 µM (MDA-MB-231): 11% |
